In the NIST ThermoML archive (doi:10.1016/j.jct.2008.02.005):
± gives the expanded uncertainty stated by the source.

Test: xn = mol fraction of the nth substance listed
Details: 101 kPa, Liquid; for viscosity: Capillary tube (Ostwald / Ubbelohde) method; for speed of sound: Sing-around technique in a fixed-path interferometer

CCCCCCCCO [octan-1-ol] + CCCCCCCCCC
Details | mass density, 298.15 K [kg/m3] | mass density, 303.15 K [kg/m3] | mass density, 308.15 K [kg/m3] | speed of sound, 298.15 K [m/s] | speed of sound, 303.15 K [m/s] | speed of sound, 308.15 K [m/s] | viscosity, 298.15 K [mPa·s]
x1 = 0.0507 | 730.551 ± 1.6 | 726.796 ± 1.6 | 722.969 ± 1.6 | 1236.4 ± 2.9 | 1216.3 ± 2.9 | 1196.8 ± 2.9 | 0.896 ± 0.015
x1 = 0.1199 | 735.871 ± 1.5 | 732.137 ± 1.5 | 728.314 ± 1.5 | 1240.1 ± 2.8 | 1220.5 ± 2.8 | 1201.1 ± 2.8 | 0.978 ± 0.016
x1 = 0.1532 | 738.514 ± 1.4 | 734.755 ± 1.4 | 730.923 ± 1.4 | 1242.2 ± 2.7 | 1222.7 ± 2.7 | 1203.4 ± 2.7 | 1.026 ± 0.016
x1 = 0.2085 | 742.997 ± 1.3 | 739.255 ± 1.3 | 735.427 ± 1.3 | 1246.3 ± 2.6 | 1226.8 ± 2.6 | 1207.5 ± 2.6 | 1.121 ± 0.016
x1 = 0.2654 | 747.773 ± 1.3 | 744.007 ± 1.3 | 740.195 ± 1.3 | 1250.8 ± 2.4 | 1231.7 ± 2.4 | 1212.6 ± 2.4 | 1.233 ± 0.017
x1 = 0.3097 | 751.578 ± 1.2 | 747.791 ± 1.2 | 743.987 ± 1.2 | 1254.8 ± 2.3 | 1235.6 ± 2.3 | 1216.6 ± 2.3 | 1.33 ± 0.018
x1 = 0.4009 | 759.689 ± 1.1 | 755.863 ± 1.1 | 752.086 ± 1.1 | 1263.5 ± 2.1 | 1244.6 ± 2.1 | 1225.9 ± 2.1 | 1.579 ± 0.019
x1 = 0.5041 | 769.261 ± 0.97 | 765.532 ± 0.97 | 761.703 ± 0.97 | 1274.7 ± 1.9 | 1256 ± 1.9 | 1237.4 ± 1.9 | 1.958 ± 0.021
x1 = 0.6069 | 779.261 ± 0.85 | 775.493 ± 0.86 | 771.782 ± 0.86 | 1287.2 ± 1.6 | 1268.7 ± 1.6 | 1250.5 ± 1.6 | 2.49 ± 0.023
x1 = 0.7244 | 791.228 ± 0.74 | 787.587 ± 0.74 | 783.929 ± 0.75 | 1303.1 ± 1.4 | 1285 ± 1.4 | 1267.4 ± 1.4 | 3.381 ± 0.028
x1 = 0.7505 | 793.993 ± 0.72 | 790.368 ± 0.72 | 786.721 ± 0.73 | 1306.9 ± 1.3 | 1288.9 ± 1.3 | 1271.5 ± 1.3 | 3.642 ± 0.029
x1 = 0.804 | 799.684 ± 0.67 | 796.157 ± 0.68 | 792.558 ± 0.68 | 1315.2 ± 1.2 | 1297.5 ± 1.2 | 1279.9 ± 1.2 | 4.231 ± 0.031
x1 = 0.8958 | 809.826 ± 0.6 | 806.478 ± 0.61 | 802.907 ± 0.61 | 1330.1 ± 1 | 1312.7 ± 1 | 1295.6 ± 1 | 5.521 ± 0.036
x1 = 0.9544 | 816.493 ± 0.56 | 813.314 ± 0.57 | 809.765 ± 0.58 | 1339.9 ± 0.9 | 1322.9 ± 0.9 | 1305.9 ± 0.9 | 6.563 ± 0.039
x1 = 1 | 821.813 ± 0.54 | 818.796 ± 0.54 | 815.286 ± 0.55 | 1348 ± 0.8 | 1330.8 ± 0.8 | 1314.1 ± 0.8 | 7.508 ± 0.042
